Source: article PMC6100703, “Rapid, simple, and clinically applicable high-performance liquid chromatography method for clinical determination of plasma colistin concentrations” (Journal of Pharmaceutical Health Care and Sciences, 2018)
≈ marks a conversion by molar mass, not a printed value. Read-outs that look alike come from different tables or passages of the source.

Assays:
[1] = Derivative stability (FMOC-Cl derivatives in eluted solution); assay type: physicochemical; conditions: mean ± SD; for Refrigerated, recovery relative to freshly prepared samples: 4 °C; for Refrigerated, recovery relative to freshly prepared samples / Room temperature, recovery relative to freshly prepared samples / Frozen, recovery relative to freshly prepared samples: 7 d, HPLC-fluorescence peak area; for Refrigerated, recovery relative to freshly prepared samples / Frozen, recovery relative to freshly prepared samples: dark; for Room temperature, recovery relative to freshly prepared samples: 25 ± 1 °C, normal fluorescent light; for Freeze-thaw, recovery relative to freshly prepared samples: three cycles −23 °C to room temperature on consecutive days; for Frozen, recovery relative to freshly prepared samples: −23 °C, closed glass test tubes
Method: The derivative stabilities of the samples containing 0.10 and 8.0 μg/mL of the standard colistin solution and the internal standard were evaluated at − 23 (frozen), 4 (refrigerated), and 25 ± 1 °C (room temperature) over 7 d. Freeze-thaw stability was assessed after three complete freeze-thaw cycles (− 23 °C to room temperature) on consecutive days. The stability of the target compounds was presented as the recovery (%) relative to the freshly prepared samples. The solutions at room temperature were exposed to normal fluorescent light, while the frozen and refrigerated samples were stored in a dark refrigerator and were exposed to light only during sampling. The storage temperatures were closely monitored throughout the study.

[2] = system: MDRP with metallo-beta-lactamase (multidrug-resistant Pseudomonas aeruginosa); test: Minimum inhibitory concentrations for the blood culture isolate of the patient; assay type: cell-based; conditions: for MIC: Pseudomonas aeruginosa, read-out: minimum inhibitory concentration
[3] = Plasma colistin concentration of a haemodialysis patient on CMS therapy (HPLC with fluorescence detection); assay type: in vivo, human; conditions: K2-EDTA plasma; for colistin concentration in plasma: HD patient
Method: HPLC analysis was performed at 25 ± 1 °C under isocratic conditions. All measurements were carried out at excitation and emission wavelengths of 260 nm and 315 nm, respectively, and the column temperature was maintained at 40 °C. The mobile phase consisted of a mixture of acetonitrile/tetrahydrofuran/distilled water (50:14:20, v/v/v) and was delivered at a flow rate of 1.6 mL/min. The sample injection volume was 50 μL.
Initially, the colistin and the internal standard (netilmicin sulfate, 20 μL) stock solutions were added to a portion of serum (200 μL). Following the addition of methanol (25 μL) and 10% trichloroacetic acid (25 μL) to the sample, it was vortexed for 10 s prior to centrifugation at 13,000 rpm for 5 min. The supernatant was then placed in an additional centrifuge tube and mixed with a 1 M sodium hydroxide solution (10 μL). The sample solution was loaded onto the solid-phase extraction (SPE) cartridge, which had been previously conditioned according to the following procedure.
SPE C18 cartridges (55 μm, 100 mg/mL; Phenomenex, Torrance, USA) were conditioned using acetone (1 mL) and methanol (1 mL) and equilibrated with 1% carbonate buffer (1 mL). The sample was then applied to the wet cartridge. After passing the sample through the cartridge, it was rinsed with methanol (1 mL) and carbonate buffer (1 mL), followed by a 100 mM FMOC-Cl solution (60 μL) and 90% methanol (3 mL). The derivatives were then eluted into a glass culture tube using acetone (500 μL). The eluted solution was mixed with a 0.6 M boric acid solution (100 μL) prior to vortex-mixing for 10 s, and then the obtained sample was injected into the HPLC system. All procedures were conducted at 25 ± 1 °C.
(§1) A patient (weight 52 kg, height 153.2 cm) with antineutrophilic cytoplasmic antibody-positive vasculitis undergoing renal replacement (intermittent haemodialysis, HD) was admitted to the hospital for rituximab and steroid pulse therapy. The HD patient’s disease had been complicated by Pneumocystis jiroveci pneumonia, herpes zoster, and MDRP infections. […] With the preliminary information of positive blood cultures, empiric treatment with cefepime (1 g every 12 h) was performed over 5 d. […] In addition, the following treatment parameters were employed: dialysate flow rate, 500 mL/min; blood flow rate, 100 mL/min; membrane surface area, 1.5 m^2; membrane type, APS-15MD New; HD frequency, twice per week; and session duration, 3 h. Samples were collected immediately prior to a dose or immediately prior to the next dose if CMS was not being administered every 24 h. The actual times of CMS administration and blood sampling were recorded. Samples were collected in potassium (K)2-ethylenediaminetetraacetic acid (EDTA)-containing tubes and centrifuged for 15 min within 2 h of collection. The resulting plasma sample was measured on the same day as blood collection. The HD clearance (CLHD) for colistin was calculated every hour during the start and end of the HD session as:
CMS was administered to the HD patient over 7 d (days 6–12), and six samples of blood were collected between days 7 and 12 of CMS therapy (Fig. 3). The initial sample was collected on day 7 approximately 20 h after the administration of CMS. All other samples were collected ~ 24 h after each dose. On the day of dialysis, the blood samples were collected at the start and end of the HD session.

[4] = human, in vivo
Method: as §1, with “as: […]” for “as:”

[5] = design: method as in 2 sources, ref Sorlí et al. [24] ||| ref Garonzik et al. [25]; conditions: cited from earlier work
[6] = system: multidrug-resistant Pseudomonas aeruginosa infection; conditions: HD patient with MDRP infection; CMS 75 mg every 24 h after loading dose 250 mg, in combination with meropenem 1 g every 24 h; after a few days
Method: as §1, with “as: […]” for “as:”

[7] = blood cultures from two peripheral vein sites of the HD patient, MDRP with metallo-beta-lactamase
[8] = critically ill patients, including those on HD and continuous renal replacement, ref Garonzik et al. [25]
[9] = patients suffering from nephrotoxicity, ref Sorlí et al. [24]

CCN[C@@H]1C[C@H](N)[C@@H](O[C@H]2OC(CN)=CC[C@H]2N)[C@H](O)[C@H]1O[C@H]1OC[C@](C)(O)[C@H](NC)[C@H]1O [Netilmicin, netilmicin]
Refrigerated, recovery relative to freshly prepared samples ([1]; 0.10 μg/mL): 104 ± 2%
Room temperature, recovery relative to freshly prepared samples ([1]; 0.10 μg/mL): 102 ± 3%
Freeze-thaw, recovery relative to freshly prepared samples ([1]; 0.10 μg/mL): 98 ± 3%
Frozen, recovery relative to freshly prepared samples ([1]; 0.10 μg/mL): 102 ± 3%
Refrigerated, recovery relative to freshly prepared samples ([1]; 8.00 μg/mL): 101 ± 2%
Room temperature, recovery relative to freshly prepared samples ([1]; 8.00 μg/mL): 103 ± 2%
Freeze-thaw, recovery relative to freshly prepared samples ([1]; 8.00 μg/mL): 102 ± 2%
Frozen, recovery relative to freshly prepared samples ([1]; 8.00 μg/mL): 103 ± 3%

NCC[C@H](O)C(=O)N[C@@H]1C[C@H](N)[C@@H](O[C@H]2O[C@H](CN)[C@@H](O)[C@H](O)[C@H]2O)[C@H](O)[C@H]1O[C@H]1O[C@H](CO)[C@@H](O)[C@H](N)[C@H]1O [amikacin]
MIC [2, 7]: > 16 µg/mL

C[C@H]1[C@H](NC(=O)/C(=N\OC(C)(C)C(=O)O)c2csc(N)n2)C(=O)N1S(=O)(=O)O [aztreonam]
MIC [2]: 16 µg/mL (≈ 36.7 µM)

CO/N=C(\C(=O)N[C@@H]1C(=O)N2C(C(=O)[O-])=C(C[N+]3(C)CCCC3)CS[C@H]12)c1csc(N)n1 [cefepime]
MIC [2]: > 32 µg/mL

CC(C)(O/N=C(\C(=O)N[C@@H]1C(=O)N2C(C(=O)[O-])=C(C[n+]3ccccc3)CS[C@H]12)c1csc(N)n1)C(=O)O [ceftazidime]
MIC [2, 7]: > 32 µg/mL

O=C(O)c1cn(C2CC2)c2cc(N3CCNCC3)c(F)cc2c1=O [ciprofloxacin]
MIC [2]: > 4 µg/mL

CNC(C)C1CCC(N)C(OC2C(N)CC(N)C(OC3OCC(C)(O)C(NC)C3O)C2O)O1 (stereo not drawn) [gentamicin]
MIC [2, 7]: > 16 µg/mL

C[C@@H](O)[C@H]1C(=O)N2C(C(=O)O)=C(S[C@@H]3CN[C@H](C(=O)N(C)C)C3)[C@H](C)[C@H]12 [meropenem]
MIC [2, 7]: > 8 µg/mL

CN(C)c1ccc(O)c2c1C[C@H]1C[C@H]3[C@H](N(C)C)C(O)=C(C(N)=O)C(=O)[C@@]3(O)C(O)=C1C2=O [minocycline]
MIC [2, 7]: > 8 µg/mL

CCN1CCN(C(=O)N[C@@H](C(=O)N[C@@H]2C(=O)N3[C@@H]2SC(C)(C)[C@@H]3C(=O)O)c2ccccc2)C(=O)C1=O [piperacillin]
MIC [2, 7]: 8 µg/mL (≈ 15.5 µM)

colistin
colistin concentration in plasma ([3]; day 7, approximately 20 h after administration of CMS (loading dose 250 mg)): 7.85 µg/mL
colistin concentration in plasma ([3]; day 8, ~24 h after dose, CMS 75 mg every 24 h): 5.95 µg/mL
colistin concentration in plasma ([3]; day 9, ~24 h after dose, CMS 75 mg every 24 h): 3.91 µg/mL
colistin concentration in plasma ([3]; day 12, ~24 h after dose, CMS 75 mg every 24 h): 3.70 µg/mL
colistin concentration in plasma at the end of the HD session ([3]; day 10, end of 3 h HD session): 2.75 µg/mL
colistin concentration in plasma at the start of the HD session ([3]; day 10, start of 3 h HD session): 4.57 µg/mL
HD clearance (CLHD) [4]: 30.7 mL/min
average steady-state concentration of colistin, median [5, 8]: 2.36 µg/mL
average steady-state concentration of colistin, range [5, 8]: 0.48 to 9.38 µg/mL
minimal concentration of colistin, median [5, 9]: 1.18 µg/mL
minimal concentration of colistin, range [5, 9]: 0.16 to 5.99 µg/mL
peak concentration of colistin, median [5, 9]: 1.81 µg/mL
peak concentration of colistin, range [5, 9]: 0.16 to 6.12 µg/mL
minimum inhibitory concentration [2, 7]: ≤ 1 µg/mL

colistin A
Refrigerated, recovery relative to freshly prepared samples ([1]; 0.10 μg/mL): 100 ± 1%
Room temperature, recovery relative to freshly prepared samples ([1]; 0.10 μg/mL): 102 ± 3%
Freeze-thaw, recovery relative to freshly prepared samples ([1]; 0.10 μg/mL): 97 ± 3%
Frozen, recovery relative to freshly prepared samples ([1]; 0.10 μg/mL): 105 ± 3%
Refrigerated, recovery relative to freshly prepared samples ([1]; 8.00 μg/mL): 100 ± 3%
Room temperature, recovery relative to freshly prepared samples ([1]; 8.00 μg/mL): 99 ± 2%
Freeze-thaw, recovery relative to freshly prepared samples ([1]; 8.00 μg/mL): 100 ± 2%
Frozen, recovery relative to freshly prepared samples ([1]; 8.00 μg/mL): 102 ± 2%

colistin B
Refrigerated, recovery relative to freshly prepared samples ([1]; 0.10 μg/mL): 102 ± 2%
Room temperature, recovery relative to freshly prepared samples ([1]; 0.10 μg/mL): 102 ± 2%
Freeze-thaw, recovery relative to freshly prepared samples ([1]; 0.10 μg/mL): 102 ± 3%
Frozen, recovery relative to freshly prepared samples ([1]; 0.10 μg/mL): 105 ± 2%
Refrigerated, recovery relative to freshly prepared samples ([1]; 8.00 μg/mL): 98 ± 3%
Room temperature, recovery relative to freshly prepared samples ([1]; 8.00 μg/mL): 101 ± 2%
Freeze-thaw, recovery relative to freshly prepared samples ([1]; 8.00 μg/mL): 99 ± 3%
Frozen, recovery relative to freshly prepared samples ([1]; 8.00 μg/mL): 100 ± 3%

colistin methanesulfonate [CMS]
blood cultures after switching to CMS therapy [6]: negative
